Source: article PMC5681660, “Reduced hepatitis B and D viral entry using clinically applied drugs as novel inhibitors of the bile acid transporter NTCP” (Scientific Reports, 2017)
Structures can show the parent of a compound that is named as a salt. Where two headings read alike, the source gives them in different places.

Key:
human NTCP [1] = molecular target: T1, human NTCP (Homo sapiens, UniProt Q14973); assay: Screening fluorescent competitive Myrcludex B-FITC binding assay (96-well, 10 µM drug)
T1 sequence (Q14973 1-349): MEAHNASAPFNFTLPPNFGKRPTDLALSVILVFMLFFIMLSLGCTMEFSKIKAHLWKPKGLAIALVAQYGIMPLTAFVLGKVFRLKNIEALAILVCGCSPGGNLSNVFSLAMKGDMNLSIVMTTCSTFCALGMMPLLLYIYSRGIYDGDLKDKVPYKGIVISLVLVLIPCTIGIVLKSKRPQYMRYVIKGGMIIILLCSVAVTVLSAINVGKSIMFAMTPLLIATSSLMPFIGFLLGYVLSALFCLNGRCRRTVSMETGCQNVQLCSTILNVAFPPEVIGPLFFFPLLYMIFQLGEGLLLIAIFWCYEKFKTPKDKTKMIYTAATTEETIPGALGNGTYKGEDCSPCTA

human NTCP [2] = molecular target: T1, human NTCP; assay: Screening taurocholate uptake assay (96-well, [14C]taurocholate, 10 µM drug)
[3] = Prestwick library screen, 10 µM drug, B-score of Myrcludex B-FITC binding
[4] = Prestwick library screen, 10 µM drug, B-score of taurocholate uptake
[5] = combined ranking from functional and binding assay B-scores
[6] = screen, 10 µM drug, Myrcludex B-FITC binding
[7] = combined ranking from functional and binding screening assays
[8] = screen, 10 µM drug, taurocholate uptake
[9] = Prestwick library screen, Myrcludex B-FITC binding, 10 µM drug
[10] = Prestwick library screen, taurocholate uptake, 10 µM drug
[11] = ranking score beside the functional and binding assay B-scores of the screen

Compound | B-score binding assay (human NTCP [1]; [6]) | Ranking score (human NTCP [2]; [7]) | B-score functional assay (human NTCP [2]; [8]) | B-score binding assay (human NTCP [1]; [9]) | B-score functional assay (human NTCP [2]; [10]) | Ranking score (human NTCP [2]; [11]) | further results
Cc1onc(-c2c(F)cccc2Cl)c1C(=O)N[C@@H]1C(=O)N2[C@@H]1SC(C)(C)[C@@H]2C(=O)O [Flucloxacillin sodium] | – | – | – | – | – | – | B-score binding assay (human NTCP [1]; [3]): 1.029; B-score functional assay (human NTCP [2]; [4]): 0.761; Ranking score (human NTCP [2]; [5]): 1024.7
Nc1[nH]c(=O)ncc1F [Flucytosine] | 0.063 | 352.224 | -1.554 | – | – | – | –
Nc1nc(F)nc2c1ncn2[C@@H]1O[C@H](CO)[C@@H](O)[C@@H]1O [Fludarabine] | – | – | – | -0.02 | 1.199 | 822.35 | –
CC(=O)OCC(=O)[C@@]1(O)CC[C@H]2[C@@H]3CCC4=CC(=O)CC[C@]4(C)[C@@]3(F)[C@@H](O)C[C@@]21C [Fludrocortisone acetate] | -0.826 | 430.869 | 0.011 | – | – | – | –
CC1CCc2cc(F)cc3c(=O)c(C(=O)O)cn1c23 (stereo not drawn) [Flumequine] | – | – | – | – | – | – | B-score binding assay (human NTCP [1]; [3]): -0.028; B-score functional assay (human NTCP [2]; [4]): 2.117; Ranking score (human NTCP [2]; [5]): 855.599
Fc1ccc(C(c2ccc(F)cc2)N2CCN(C/C=C/c3ccccc3)CC2)cc1 [Flunarizine dihydrochloride] | – | – | – | 0.001 | 0.875 | 816.419 | –
CC1(C)O[C@@H]2C[C@H]3[C@@H]4C[C@H](F)C5=CC(=O)C=C[C@]5(C)[C@H]4[C@@H](O)C[C@]3(C)[C@]2(C(=O)CO)O1 [Flunisolide] | – | – | – | 0.284 | 0.152 | 805.548 | –
CC1(C)O[C@@H]2C[C@H]3[C@@H]4C[C@H](F)C5=CC(=O)C=C[C@]5(C)[C@@]4(F)[C@@H](O)C[C@]3(C)[C@]2(C(=O)CO)O1 [Fluocinolone acetonide] | – | – | – | -0.033 | 0.621 | 752.533 | –
CC1(C)O[C@@H]2C[C@H]3[C@@H]4C[C@H](F)C5=CC(=O)CC[C@]5(C)[C@H]4[C@@H](O)C[C@]3(C)[C@]2(C(=O)CO)O1 [Flurandrenolide] | -0.083 | 407.676 | -0.782 | – | – | – | –
CC(C)C(=O)Nc1ccc([N+](=O)[O-])c(C(F)(F)F)c1 [Flutamide] | 0.039 | 383.15 | -1.233 | – | – | – | –
CCC(=O)O[C@]1(C(=O)SCF)[C@H](C)C[C@H]2[C@@H]3C[C@H](F)C4=CC(=O)C=C[C@]4(C)[C@@]3(F)[C@@H](O)C[C@@]21C [Fluticasone propionate] | – | – | – | 0.947 | 0.021 | 830.535 | –
Nc1nc(=O)c2nc(CNc3ccc(C(=O)N[C@@H](CCC(=O)O)C(=O)O)cc3)cnc2[nH]1 [Folic acid] | -0.117 | 436.211 | -0.57 | – | – | – | –
Nc1nc(=O)c2c([nH]1)NCC(CNc1ccc(C(=O)N[C@@H](CCC(=O)[O-])C(=O)[O-])cc1)N2C=O.[Ca+2] (stereo partly drawn) [Folinic acid calcium salt] | – | – | – | 0.117 | 0.369 | 806.918 | –
Cc1cn[nH]c1 [Fomepizole] | – | – | – | -0.028 | 0.928 | 795.707 | –
C[C@]12CCC(=O)C(O)=C1CC[C@@H]1[C@@H]2CC[C@]2(C)C(=O)CC[C@@H]12 [Formestane] | – | – | – | – | – | – | B-score binding assay (human NTCP [1]): -0.147; B-score functional assay (human NTCP [2]): -0.613; Ranking score (human NTCP [2]): 420.899
COc1ccc(C[C@@H](C)NC[C@H](O)c2ccc(O)c(NC=O)c2)cc1.COc1ccc(C[C@@H](C)NC[C@H](O)c2ccc(O)c(NC=O)c2)cc1.O=C(O)/C=C/C(=O)O [Formoterol fumarate] | – | – | – | -0.165 | 1.513 | 764.904 | –
O=C(O)c1ccccc1OP(=O)(O)O [Fosfosal] | -0.072 | 393.853 | -0.869 | – | – | – | –
CCC(=O)O[C@@H](O[P@](=O)(CCCCc1ccccc1)CC(=O)N1C[C@H](C2CCCCC2)C[C@H]1C(=O)O)C(C)C [Fosinopril] | – | – | – | -0.621 | 3.318 | 655.924 | –
C[C@]12CC[C@@H]3c4ccc(O)cc4C[C@@H](CCCCCCCCC[S+]([O-])CCCC(F)(F)C(F)(F)F)[C@H]3[C@@H]1CC[C@@H]2O (stereo partly drawn) [Fulvestrant] | – | – | – | -0.303 | 1.208 | 701.076 | –
C/C(=C(/CCO)SSCC1CCCO1)N(C=O)Cc1cnc(C)nc1N.Cl (stereo not drawn) [Fursultiamine Hydrochloride] | – | – | – | – | – | – | B-score binding assay (human NTCP [1]): 0.087; B-score functional assay (human NTCP [2]): 1.116; Ranking score (human NTCP [2]): 897.109
Cl.Cl.Fc1ccc(C(OCCN2CCN(CCCc3ccccc3)CC2)c2ccc(F)cc2)cc1 [GBR 12909 dihydrochloride] | -0.172 | 416.575 | -0.602 | – | – | – | –

Compound | B-score binding assay (human NTCP [1]; [6]) | Ranking score (human NTCP [2]; [7]) | B-score functional assay (human NTCP [2]; [8]) | B-score binding assay (human NTCP [1]; [9]) | B-score functional assay (human NTCP [2]; [10]) | Ranking score (human NTCP [2]; [11]) | further results
NCC1(CC(=O)O)CCCCC1 [Gabapentin] | 0.068 | 428.131 | -0.982 | – | – | – | –
COc1ccc2c3c1O[C@H]1C[C@@H](O)C=C[C@@]31CCN(C)C2 [Galanthamine hydrobromide] | – | – | – | 0.486 | 0.072 | 808.114 | –
Nc1nc(O)c2ncn(COC(CO)CO)c2n1 [Ganciclovir] | 0.144 | 278.51 | -2.412 | – | – | – | –
Nc1ccn([C@@H]2O[C@H](CO)[C@@H](O)C2(F)F)c(=O)n1 [Gemcitabine] | – | – | – | 0.165 | 0.015 | 717.496 | –
Cc1ccc(C)c(OCCCC(C)(C)C(=O)O)c1 [Gemfibrozil] | -2.286 | 289.348 | 0.85 | – | – | – | –
C#C[C@]1(O)CC[C@H]2[C@@H]3CCC4=CC(=O)CCC4=C3C=C[C@@]21CC [Gestrinone] | -0.596 | 385.482 | -0.358 | – | – | – | –
Cl.O=C(OCC(O)CO)c1ccccc1Nc1ccnc2cc(Cl)ccc12 (stereo not drawn) [Glafenine hydrochloride] | – | – | – | – | – | – | B-score binding assay (human NTCP [1]; [3]): 3.077; B-score functional assay (human NTCP [2]; [4]): 0.341; Ranking score (human NTCP [2]; [5]): 1037.91
CCC1=C(C)CN(C(=O)NCCc2ccc(S(=O)(=O)NC(=O)N[C@H]3CC[C@H](C)CC3)cc2)C1=O [Glimepiride] | 0.412 | 350.338 | -1.888 | – | – | – | –
Cc1cnc(C(=O)NCCc2ccc(S(=O)(=O)NC(=O)NC3CCCCC3)cc2)cn1 [Glipizide] | 0.997 | 412.592 | -1.639 | – | – | – | –
COc1ccc2c(c1)C(=O)N(CCc1ccc(S(=O)(=O)NC(=O)NC3CCCCC3)cc1)C(=O)C2(C)C [Gliquidone] | 1.024 | 336.107 | -2.316 | – | – | – | –
CCC1(c2ccc(N)cc2)CCC(=O)NC1=O (stereo not drawn) [Glutethimide, para-amino] | – | – | – | -0.055 | 0.113 | 663.514 | –
C[N+]1(C)CCC(OC(=O)C(O)(c2ccccc2)C2CCCC2)C1 (stereo not drawn) [Glycopyrrolate] | – | – | – | 0.143 | 0.403 | 820.625 | –
CN1C2CCCC1CC(NC(=O)c1nn(C)c3ccccc13)C2 (stereo not drawn) [Granisetron] | – | – | – | -0.067 | 0.526 | 726.756 | –
COc1ccccc1O [Guaiacol] | – | – | – | 0.94 | -0.032 | 782.911 | –
N=C(N)NCC1COC2(CCCCC2)O1.N=C(N)NCC1COC2(CCCCC2)O1.O=S(=O)(O)O (stereo not drawn) [Guanadrel sulfate] | 0.27 | 326.821 | -2.033 | – | – | – | –
CCCCN(CCCC)CCC(O)c1cc2c(Cl)cc(Cl)cc2c2cc(C(F)(F)F)ccc12 (stereo not drawn) [Halofantrine hydrochloride] | -1.143 | 393.07 | 0.058 | – | – | – | –
Oc1c(Cl)cc(Cl)c(Cl)c1Cc1c(O)c(Cl)cc(Cl)c1Cl [Hexachlorophene] | – | – | – | – | – | – | B-score binding assay (human NTCP [1]): 1.48; B-score functional assay (human NTCP [2]): -8.47; Ranking score (human NTCP [2]): 82.4136
C[N+](C)(C)CCCCCC[N+](C)(C)C.O.O.[Br-].[Br-] [Hexamethonium dibromide dihydrate] | – | – | – | 0.191 | -0.02 | 696.207 | –
CC(CNC1CCCCC1)OC(=O)c1ccccc1 (stereo not drawn) [Hexylcaine hydrochloride] | -1.021 | 435.325 | 0.196 | – | – | – | –
CN1CCCN(C(c2ccccc2)c2ccc(Cl)cc2)CC1.Cl.Cl (stereo not drawn) [Homochlorcyclizine dihydrochloride] | – | – | – | – | – | – | B-score binding assay (human NTCP [1]; [3]): 1.404; B-score functional assay (human NTCP [2]; [4]): 0.737; Ranking score (human NTCP [2]; [5]): 1053.65
CC1CC(OC(=O)c2ccccc2O)CC(C)(C)C1 (stereo not drawn) [Homosalate] | – | – | – | 0.177 | 0.284 | 811.615 | –
